From publication PMC9787607, “A Novel Protocol for the Synthesis of 1,2,4-Oxadiazoles Active against Trypanosomatids and Drug-Resistant Leukemia Cell Lines” (Tropical Medicine and Infectious Disease, 2022)
Structures can show the parent of a compound that is named as a salt.

Experiments:
HL-60/VCR = tested on: HL-60/VCR; set-up: method as in PMID 20411988; settings: drug-resistant promyelocytic leukemia; cited from earlier work
HL-60 = tested on: HL-60; set-up: method as in PMID 20411988; settings: sensitive promyelocytic leukemia; cited from earlier work
Leishmania amazonensis = tested on: Leishmania amazonensis; set-up: method as in PMID 19962891; settings: cited from earlier work
T. cruzi amastigotes = tested on: T. cruzi amastigotes; set-up: method as in PMID 22727447; settings: cited from earlier work
A375 = tested on: A375; set-up: method as in doi:10.1134/S1070363218050304; settings: cited from earlier work
MCF-7 = tested on: MCF-7; set-up: method as in doi:10.1134/S1070363218050304; settings: cited from earlier work
ACHN = tested on: ACHN; set-up: method as in doi:10.1134/S1070363218050304; settings: cited from earlier work
T. cruzi [1] = tested on: T. cruzi; set-up: method as in PMID 22217867; settings: cited from earlier work
[2] = tested on: Trypanosoma brucei rhodesiense; set-up: method as in PMID 22217867; settings: cited from earlier work
Leishmania donovani = tested on: Leishmania donovani; set-up: method as in PMID 22217867; settings: cited from earlier work
PC3 = tested on: PC3; set-up: method as in PMID 15142541; settings: cited from earlier work
L. donovani = tested on: L. donovani; set-up: method as in PMID 15142541; settings: cited from earlier work
Vero = tested on: Vero; set-up: method as in PMID 15142541; settings: cited from earlier work
T. brucei = tested on: T. brucei; set-up: method as in PMID 15142541; settings: cited from earlier work
FEPS (K562/DNR) [3] = tested on: FEPS (K562/DNR); set-up: method as in PMID 32229586; settings: reference drugs; cited from earlier work
Lucena-1 (K562/VCR) [4] = tested on: Lucena-1 (K562/VCR); set-up: method as in PMID 32229586; settings: reference drugs; cited from earlier work
Lucena-1 (K562/VCR) [5] = assay: cells; format: cell-based, human; settings: reference drugs, Lucena-1/K562, ratio of EC50 values from ref 64
Method: (§1) The CML cell lines K562, Lucena-1 (K562/VCR), and FEPS (K562/DNR) were cultured in RPMI-1640 medium supplemented with 25 mM HEPES and 2 g L^−1 sodium bicarbonate adjusted to pH 7.4 with NaOH, 100 U penicillin and […] streptomycin. All media were supplemented with 10% FBS. Dr. Vivian M. Rumjanek (Instituto de Bioquímica Médica, UFRJ, Brazil) kindly donated Lucena-1 and FEPS cells. Briefly, K562 cells were exposed to increasing concentrations of the chemotherapeutic drugs vincristine sulfate (VCR) and daunorubicin hydrochloride (DNR) (both from Sigma-Aldrich), as described previously. Lucena-1 (K562/VCR) and FEPS (K562/DNR) cells were cultured in the presence of either 60 nM VCR or 500 nM DNR to maintain the MDR phenotypes. For subcultures, cells were harvested every three days followed by washing with cold FBS, and a final concentration of 2 × 10^4 cells mL^−1 was maintained at 37 °C in 5% CO2.
(§2) Cell viability was determined by the 3-(4,5-dimethylthiazol-2-yl)-2,5-diphenyltetrazolium (MTT) colorimetric assay. CML cells (2 × 10^4 cells·mL^−1) were incubated for 72 h at 37 °C, followed by treatment with compounds at a range of concentrations (100–1 μM). Negative controls were prepared with 0.5% DMSO. An MTT salt solution was added to each well to a final concentration of 0.5 g·L^−1, and plates were incubated at 37 °C in 5% CO2 for 3 h. After centrifugation, 200 μL DMSO was added to dissolve the dark-blue formazan crystals formed by MTT reduction. Absorbance was measured on a microplate reader at 570 nm, which is directly proportional to formazan contents and indicative of living cells.
(§3) The percent cell or parasite viability was calculated by the formula: % viability = [(A − P)/(N − P)] × 100, A = absorbance of specific well, P = positive control, N = negative control. Determination of half-maximal effective concentrations (EC50), calculated by logarithmic regression, and significance analysis (p < 0.05), using ANOVA and Dunnett’s test, by GraphPad Prism 7.0 software. The results are expressed as the mean and standard deviation (SD) of three independent experiments.

FEPS (K562/DNR) [6] = assay: MTT cytotoxicity to MDR CML cell line FEPS; format: cell-based, human; settings: reference drugs, FEPS/K562, ratio of EC50 values from ref 64
Method: as §1, §2, §3

K562 = tested on: K562; set-up: method as in PMID 32229586; settings: reference drugs; cited from earlier work
T. cruzi trypomastigotes = tested on: T. cruzi trypomastigotes; set-up: method as in PMID 23006639; settings: cited from earlier work
T. cruzi [7] = tested on: T. cruzi; set-up: method as in PMID 23006639; settings: cited from earlier work

**Q.** Which results are given for `COc1cccc(/C=C/C(=O)Nc2cc(OC)c(OC)c(OC)c2)c1` [Compound 2]?
**A.** IC50 (HL-60/VCR): 11.6 µM; IC50 (HL-60): 3.1 µM

**Q.** Which IC50 (Leishmania amazonensis) does the source give for `C=COc1cc(OC)c(C(=O)/C=C/c2ccncc2)c(OC=C)c1` [Compound 3] here?
**A.** 0.6 µM

**Q.** For `O=C(/C=C/c1ccc2c(c1)OCO2)c1cccs1` [Compound 4], which IC50 (T. cruzi amastigotes) is on record?
**A.** 5.6 µM

**Q.** For `COc1cc(-c2nc(-c3c(Cl)nc4sc(C)nn34)no2)cc(OC)c1OC` [Compound 6], which IC50 (A375) is on record?
**A.** 1.22 µM

**Q.** And the IC50 (MCF-7)?
**A.** 0.23 µM

**Q.** What about the IC50 (ACHN) of the same compound?
**A.** 0.11 µM

**Q.** What does the source list for `Cc1ccc(-c2noc(CN3N=NC4C(=O)N(c5ccccc5)C(=O)C43)n2)cc1` (centres unmarked) [Compound 7]?
**A.** IC50 (T. cruzi [1]): 100 µM; IC50 [2]: 21.6 µM; IC50 (Leishmania donovani): 5.7 µM

**Q.** Which results are given for `N#CSCc1nc(-c2ccc(Cl)c(Cl)c2)no1` [Compound 8]?
**A.** IC50 (PC3): 3.9 µM; IC50 (L. donovani): 2.3 µM; IC50 (Vero): 70 µM; IC50 (T. brucei): 5.2 µM

**Q.** Which EC50 (FEPS (K562/DNR) [3]) does the source give for `COc1cccc2c1C(=O)c1c(O)c3c(c(O)c1C2=O)C[C@@](O)(C(C)=O)C[C@@H]3O[C@H]1C[C@H](N)[C@H](O)[C@H](C)O1` [DNR, daunorubicin hydrochloride] here?
**A.** 6.45 ± 1.27 µM

**Q.** What about the EC50 (Lucena-1 (K562/VCR) [4]) of the same compound?
**A.** 3.06 ± 0.87 µM

**Q.** What about the “RR (relative resistance) Lucena-1” value (Lucena-1 (K562/VCR) [5]) of the same compound?
**A.** 37.3

**Q.** What about the “RR (relative resistance) FEPS” value (FEPS (K562/DNR) [6]) of the same compound?
**A.** 78.6

**Q.** What about the EC50 (K562) of the same compound?
**A.** 0.082 ± 0.001 µM

**Q.** Which results are given for `CC[C@]1(O)C[C@H]2CN(CCc3c([nH]c4ccccc34)[C@@](C(=O)OC)(c3cc4c(cc3OC)N(C=O)[C@H]3[C@@](O)(C(=O)OC)[C@H](OC(C)=O)[C@]5(CC)C=CCN6CC[C@]43[C@@H]65)C2)C1` [VCR, vincristine sulfate]?
**A.** EC50 (FEPS (K562/DNR) [3]): 1.05 ± 0.07 µM; EC50 (Lucena-1 (K562/VCR) [4]): 0.85 ± 0.12 µM; RR (relative resistance) Lucena-1 (Lucena-1 (K562/VCR) [5]): 15.7; RR (relative resistance) FEPS (FEPS (K562/DNR) [6]): 19.4; EC50 (K562): 0.054 ± 0.005 µM

**Q.** With `O=C(NN=Cc1ccc2c(c1)OCO2)c1nc(-c2ccc(Cl)cc2)no1` [conjugate 9] as the compound, how does the IC50 (T. cruzi trypomastigotes) read?
**A.** 3.5 µM

**Q.** And the “effect on parasitemia in infected mice” value (T. cruzi [7])?
**A.** reduce parasitemia
